Patent US8834855B2, “Sunscreen compositions comprising carotenoids” (Promar AS, priority 2005, dated 2014)

What was measured:
[1] = Phase distribution of carotenoids in water-ethanol/heptane extraction at different water levels; type: physicochemical; conditions: room temperature, no pH adjustment
Procedure: (§1) Extraction is performed in a nitrogen atmosphere in equipment covered with aluminium foil. • 1. The pH of a water suspension of the microalgae P. tricornutum (14 g dry weight per liter of water) was adjusted to 8.3 and ethanol was added to a final ratio of water:ethanol=0.3:1.0. • 2. The water-ethanol solution was extracted by mixing with heptane (water-ethanol solution:heptane=1.3:1.0) for 1 hour at 20° C. • 3. The solution was separated into three phases by centrifugation (10 minutes at 3222×g): An upper heptane phase enriched in diadinoxanthin and fucoxanthin, a lower ethanol-water phase enriched in chlorophylls and degradation products of chlorophylls, and a third mid-phase with precipitated materials. The ratio of the concentration of diadinoxanthin to fucoxanthin in the water-ethanol phase was approximately 1:6. • 4. Water was added to the water-ethanol phase until a water:ethanol ratio of 0.7:1.0 was reached. This solution was extracted by a similar amount of heptane and the phases separated by centrifugation (as in step 3). Diadinoxanthin was enriched in the heptane phase (diadinoxanthin:fucoxanthin=1:1), and fucoxanthin and fucoxanthin-derivatives in the ethanol-water phase. • 5. The heptane phase was stored overnight at −20° C. to separate fucoxanthin which was separated by centrifugation as described above. (Alternatively, the precipitated material may be removed with a pipette.) • 6. The heptane phase was used for further purification of diadinoxanthin by HPLC as described hereinbefore to yield […] of the diadinoxanthin found in the starting material. Optimization
Various parameters in the above described basic method were varied to establish the effect of water concentration, pH and temperature on the isolation method.
The method was performed at room temperature without pH adjustment.

[2] = Effects of temperature on extraction for 200 minutes, water:ethanol:heptane 1:1:1, pH 11; type: physicochemical; conditions: for amount in phase after extraction: 1:1:1, pH 11
[3] = Effects of temperature and pH on separation of diadinoxanthin from fucoxanthin (water:ethanol phase extracted with heptane); type: physicochemical
Procedure: as §1
(§2) Values indicated are for the amount of each compound in the indicated phase. The value in brackets indicates the % distribution between the two phases.

[4] = Irradiation absorption in an in vitro skin model (Vitro-skin, integrating sphere transmission); conditions: Miglyol solvent, compared to a conventional SPF 60 sun lotion
Procedure: A commercial sunscreen SPF60 was used for comparison. Vitro−skin+miglyol was used as the control. Curve 1: Vitro−skin+Miglyol, 2: SPF60, 3:fucoxanthin at 2.76 mg/ml, 4:fucoxanthin at 0.55 mg/ml, 5:fucoxanthin at 0.25 mg/ml, 6:diadinoxanthin at 0.64 mg/ml, 7:diadinoxanthin at 0.13 mg/ml; and
The concentrations are given as the sum of the given compounds and their degradation products (cis-fucoxanthin and diadinochrome). Solid lines with squares—diadinoxanthin. Solid line with diamonds—fucoxanthin. Dashed lines illustrate a projected linear relationship.
The in vitro method of Springsteen was used (Springsteen et al., 1999, Analytica Chimica Acta, 380, p155-164). Vitro-skin was used as the skin simulator and Miglyol (Miglyol 812F Neutraloel CHG. 040906) was used as the solvent. The tests were performed with a Varian Cary 300 Conc UV-Visible Spectrophotometer (with an integrating sphere). Fucoxanthin and diadinoxanthin (isolated as described in Example 2) were tested at the concentrations indicated on FIG. 3.

[5] = Recovery of initial amount after extraction at different temperature and pH (stability); type: physicochemical
Description: as §2

[6] = water:EtOH:heptane 0:1:1, heptane phase
[7] = water:EtOH:heptane 0:1:1, water-EtOH phase
[8] = water:EtOH:heptane 0.1:1:1, heptane phase
[9] = water:EtOH:heptane 0.1:1:1, water-EtOH phase
[10] = water:EtOH:heptane 0.2:1:1, heptane phase
[11] = water:EtOH:heptane 0.2:1:1, water-EtOH phase
[12] = water:EtOH:heptane 0.4:1:1, heptane phase
[13] = water:EtOH:heptane 0.4:1:1, water-EtOH phase
[14] = NaOH-buffer, pH 12.2, 50° C., Heptane phase
[15] = NaOH-buffer, pH 12.2, 50° C., Water-EtOH phase
[16] = Phosphate, pH 11, 20° C., Heptane phase
[17] = Phosphate, pH 11, 20° C., Water-EtOH phase
[18] = Phosphate, pH 11, 50° C., Heptane phase
[19] = Phosphate, pH 11, 50° C., Water-EtOH phase

Row | SMILES | phase distribution [1, 6] [%] | phase distribution [1, 7] [%] | phase distribution [1, 8] [%] | phase distribution [1, 9] [%] | phase distribution [1, 10] [%] | phase distribution [1, 11] [%] | phase distribution [1, 12] [%] | phase distribution [1, 13] [%] | amount in phase after extraction ([2]; 20 °C, Heptane phase) | amount in phase after extraction ([2]; 20 °C, Water-EtOH phase) | amount in phase after extraction ([2]; 35 °C, Heptane phase) | amount in phase after extraction ([2]; 35 °C, Water-EtOH phase) | amount in phase after extraction ([2]; 50 °C, Heptane phase) | amount in phase after extraction ([2]; 50 °C, Water-EtOH phase) | % distribution between the two phases [3, 14] | amount of compound in phase [3, 14] | % distribution between the two phases [3, 15] | amount of compound in phase [3, 15] | % distribution between the two phases [3, 16] [%] | amount of compound in phase [3, 16] | other results
1 | C=Cc1c(C)c2cc3nc(c4c5[n-]c(cc6nc(cc1[n-]2)C(C)=C6CC)c(C)c5C(=O)[C@@H]4C(=O)OC)[C@@H](CCC(=O)OC/C=C(\C)CCC[C@H](C)CCC[C@H](C)CCCC(C)C)[C@@H]3C.[Mg+2] [Chl a, chlorophyll a] | 45 | 55 | 100 | 0 | 93 | 7 | 100 | 0 | 3290 | 0 | 3505 | 0 | 4010 | 0 |  |  |  |  |  |  | 
2 | CC1=C(C#C/C(C)=C/C=C/C(C)=C/C=C/C=C(C)/C=C/C=C(C)/C=C/[C@@]23O[C@]2(C)C[C@@H](O)CC3(C)C)C(C)(C)C[C@H](O)C1 [diadinoxanthin] | 12 | 88 | 93 | 7 | 6 | 94 | 22 | 78 | 1155 | 170 | 1260 | 180 | 1310 | 190 | 100% | 1440 | 0 (0%) | 0 (0%) | 100 | 1500 | % distribution between the two phases [3, 17]: 0 (0%); amount of compound in phase [3, 17]: 0 (0%); % distribution between the two phases [3, 18]: 100%; amount of compound in phase [3, 18]: 1470; % distribution between the two phases [3, 19]: 0 (0%); amount of compound in phase [3, 19]: 0 (0%); ability to absorb irradiation [4]: ability to absorb irradiation, particularly in the blue light range of the spectrum, but also in the upper UVA area; Total present in both phases ([5]; NaOH-buffer, pH 12.2, 50° C.): 1440; Total present in both phases ([5]; Phosphate, pH 11, 20° C.): 1500; Total present in both phases ([5]; Phosphate, pH 11, 50° C.): 1470; stability under the temperature and pH conditions used ([5]; pH 11): stable under the conditions used
3 | CC(=O)O[C@H]1CC(C)(C)C(=C=C/C(C)=C/C=C/C(C)=C/C=C/C=C(C)/C=C/C=C(\C)C(=O)C[C@@]23O[C@]2(C)C[C@@H](O)CC3(C)C)[C@](C)(O)C1 [fucoxanthin] | 7 | 93 | 49 | 51 | 2 | 98 | 3 | 97 | 1065 | 380 | 610 | 210 | 95 | 0 | 0 (0%) | 0 (0%) | 0 (0%) | 0 (0%) | 95 | 4860 | % distribution between the two phases [3, 17]: 5%; amount of compound in phase [3, 17]: 260; % distribution between the two phases [3, 18]: 95%; amount of compound in phase [3, 18]: 2745; % distribution between the two phases [3, 19]: 5%; amount of compound in phase [3, 19]: 135; ability to absorb irradiation [4]: ability to absorb irradiation, particularly in the blue light range of the spectrum, but also in the upper UVA area; Total present in both phases ([5]; NaOH-buffer, pH 12.2, 50° C.): 0; Total present in both phases ([5]; Phosphate, pH 11, 20° C.): 5120; Total present in both phases ([5]; Phosphate, pH 11, 50° C.): 2880; stability under the temperature and pH conditions used ([5]; pH 11 to 12.2, 20 to 50° C.): more sensitive to extreme temperatures and pH; stability at various temperatures ([2]; 20, 35, 50 °C, pH 11): more sensitive to higher temperatures
